This test concerns SCC4, HSC3, Cal27 OSCC cell lines. Description: MTT assay, human OSCC cell lines. Type of test: cell-based. To be noted: 8 h and 24 h treatments, read-out: IC50 (cell growth).

Data on one molecule can be found in US20210315960A1, “COMPOSITIONS OF AZADIRACHTA INDICA AND METHODS OF TREATING CANCER” (Board of Regents, The University of Texas System, priority 2018, published 2021).

pIC50: −log10 of the molar value.

Method: SCC4 and Cal27 oral cancer cells are obtained from ATCC and maintained in DMEM supplemented with 10% fetal bovine serum and 1% penicillin/streptomycin at 37° C. with 5% CO2. For the SCC4 cells, hydrocortisone was provided at 400 ng/ml in the completed media. […] Doses to be tested will bracket the IC50s for each cell line. Control cells will receive DMSO. […] Subsequently, 10 μl of 12 mM MTT (Life Technologies; Carlsbad, Calif.) solution was added to each well, incubated for 4 hr at 37° C., and neutralized with DMSO. Absorbance was measured at 540 nm and percent viability was calculated.

Broadly, the pIC50 is the IC50 on a negative log10 scale, so that one unit is a factor of ten. For the molecule `Cc1ccc(-c2cc(C(F)(F)F)nn2-c2ccc(S(N)(=O)=O)cc2)cc1` [Celecoxib], the pIC50 is 4.12.
